In PubChem BioAssay AID1963440 (Molecular Pharmacology Branch, DTP, NCI, 2024):
Values joined by “and” are separate entries in the source; they are usually repeats but may differ in a detail not shown here. Equal entries are not always repeated.

Test system: NCI-H1417 complex spheroids, growth % test/control
Assay: Anticancer human tumor NCI-H1417 cell line growth inhibition [Asc];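 note: spheroids exposed to compounds for 7 days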;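 for viability, T/C: 100% = DMSO vehicle control wells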
Details: for viability, T/C: stronger effect = lower value; active = viability on the fitted dose curve at most 10% of control; inactive = the rest
Method: Multicellular complex tumor spheroid response to apoptosis pathway targeting inhibitors Alrizomadlin, Pelcitoclax, and Dasminapant in combination with a variety of drugs and investigational agents in selected tumor cell lines
The MDM2 inhibitor alrizomadlin, the Bcl-2/Bcl-xL inhibitor pelcitoclax, and the IAPs inhibitor dasminapant were evaluated both individually and in combination with standard of care and investigational anticancer small molecules within a complex spheroid model of solid tumors. . Complex spheroids include a stromal component modeled by human endothelial cells (HUVEC) and fibroblasts modeled by human mesenchymal stem cells (MSCs). The concentration ranges selected for each drug and investigational agent were based upon clinically achievable concentrations if the clinical Cmax of the agent was known.
Compounds. The drugs and investigational agents: alrizomadlin (APG-115; NSC831270), pelcitoclax (APG-1252; NSC835773), dasminapant (APG-1387;NSC834197), TAK-243 (NSC785004), copanlisib (NSC809693), olaparib (NSC753686), talazoparib (NSC767125), cobimetinib (NSC 768068), eltanexor (KPT-8602, NSC 794443), abemaciclib (NSC 768073), sotorasib (NSC818433), adagrasib (NSC 831453), MRTX-1133 (NSC 836407), Iadademestat (ORY1001, NSC 806812), and RMC-4630 (NSC839698), were obtained from the NCI Developmental Therapeutics Program Chemical Repository. The FDA-approved anticancer drug set is available from the Developmental Therapeutics Program at https://dtp.cancer.gov/organization/dscb/obtaining/available plates.htm. […] The stock solutions were prepared in dimethyl sulfoxide (DMSO, Sigma-Aldrich, St. Louis, MO, cat. D2650) at 800-fold the tested concentration and stored at -70 degrees C prior to their use. All drugs and investigational agents were tested over a range starting from a high concentration at or near the clinical Cmax and decreasing in half-log increments. If the clinical Cmax for an agent had not been determined, the highest concentration tested was 10 microM.
The patient-derived cancer (PDC) cell lines include five colon adenocarcinomas: 186277-243-T-J2-PDC, 616215-338-R-J1-PDC, 439559-082-T-J2-PDC, 463943-066-T-J2-PDC, and 519858-162-T-J1-PDC; three pancreatic carcinomas: 323965-272-R-J2-PDC, 521955-158-R6-J3-PDC, and 521955-158-R2-J5-PDC; two uterine sarcomas: 327498-152-R-J2-PDC and 993429-296-R-J1-PDC; two rhabdomyosarcomas: 755483-174-R-J1-PDC and 772245-204-R-J1-PDC; two soft tissue sarcomas: 126254-015-R-J1-PDC and 494315-158-R-J1-PDC; two malignant fibrous histiocytomas: 317291-083-R-J1-PDC and 596521-263-R-J1-PDC; two breast carcinomas: 171881-019-R-J1-PDC and 885512-296-R-J2-PDC; and one ovarian carcinoma: 6556581-035-R-J-PDC were obtained from the NCI PDMR, (https://pdmr.cancer.gov). The established cell lines HSSY-2 synovial sarcoma (RRID:CVCL 8719), SYO-1 synovial sarcoma (RRID:CVCL_7146), MPNST malignant peripheral neural sheath tumor were obtained from the Sloan Kettering Institute. The following established cell lines were purchased from the American Type Culture Collection (ATCC, Manassas, VA), Sor the received from the NCI repository:, PANC-1 pancreatic carcinoma (CRL-1469, RRID:CVCL_0480), OVCAR-5 ovarian carcinoma (RRID:CVCL_1628), OVCAR-8 ovarian carcinoma (RRID:CVCL_1629), , MCF-7 breast carcinoma (CRL-12584, RRID:CVCL_0031), MDA-MB-231 breast carcinoma (CRL-12532, RRID:CVCL_0062), NCI-H1876 small cell lung carcinoma (CRL-5902, RRID:CVCL_1503), NCI-H510A small cell lung carcinoma (HTB-184, RRID:CVCL_1565), NCI-H1417 (CRL-5869, RRID:CVCL_1469), and NCI-H196 small cell lung carcinoma (CRL-5823, RRID:CVCL_1509). Dr. Peter Houghton (Greehey Children's Cancer Research Institute, University of Texas Health Science Center, San Antonio, TX) provided Rh-18 rhabdomyosarcoma (RRID:CVCL_1659). Pooled donor human umbilical vein endothelial cells (HUVEC, Lonza, cat. CC-2519) and human mesenchymal stem cells (hMSC, Lonza, cat. PT-2501) were purchased from Lonza (Walkersville, MD).
Cell Culture. […]

[1] = curve of first compound, second compound 0.03 µM
[2] = curve of first compound, second compound 0.0949 µM
[3] = curve of first compound, second compound 0.3 µM
[4] = curve of first compound, second compound 0.949 µM
[5] = curve of first compound, second compound 3 µM
[6] = second compound 0.03 µM, first compound 0.00316 µM
[7] = second compound 0.03 µM, first compound 0.01 µM
[8] = second compound 0.03 µM, first compound 0.0316 µM
[9] = second compound 0.03 µM, first compound 0.1 µM
[10] = second compound 0.03 µM, first compound 0.316 µM
[11] = second compound 0.03 µM, first compound 1 µM
[12] = second compound 0.0949 µM, first compound 0.00316 µM
[13] = second compound 0.0949 µM, first compound 0.01 µM
[14] = second compound 0.0949 µM, first compound 0.0316 µM
[15] = second compound 0.0949 µM, first compound 0.1 µM
[16] = second compound 0.0949 µM, first compound 0.316 µM
[17] = second compound 0.0949 µM, first compound 1 µM
[18] = second compound 0.3 µM, first compound 0.00316 µM
[19] = second compound 0.3 µM, first compound 0.01 µM
[20] = second compound 0.3 µM, first compound 0.0316 µM
[21] = second compound 0.3 µM, first compound 0.1 µM
[22] = second compound 0.3 µM, first compound 0.316 µM
[23] = second compound 0.3 µM, first compound 1 µM
[24] = second compound 0.949 µM, first compound 0.00316 µM
[25] = second compound 0.949 µM, first compound 0.01 µM
[26] = second compound 0.949 µM, first compound 0.0316 µM
[27] = second compound 0.949 µM, first compound 0.1 µM
[28] = second compound 0.949 µM, first compound 0.316 µM
[29] = second compound 0.949 µM, first compound 1 µM
[30] = second compound 3 µM, first compound 0.00316 µM
[31] = second compound 3 µM, first compound 0.01 µM
[32] = second compound 3 µM, first compound 0.0316 µM
[33] = second compound 3 µM, first compound 0.1 µM
[34] = second compound 3 µM, first compound 0.316 µM
[35] = second compound 3 µM, first compound 1 µM

O=C(c1ccc(F)c(F)c1Nc1ccc(I)cc1F)N1CC(O)([C@@H]2CCCCN2)C1 + CCN1C(C(=O)NC23CCC(C(=O)O)(CC2)CC3)C(c2cccc(Cl)c2F)C2(C(=O)Nc3cc(Cl)ccc32)C12CCCCC2
> 1000 nM: IC50 [1] | IC50 [2] | IC50 [3] | IC50 [4] | IC50 [5]
inactive: viability, T/C [6] 85.9% | viability, T/C [7] 91.6% | viability, T/C [8] 88.9% | viability, T/C [9] 85.9% | viability, T/C [10] 88.2% | viability, T/C [11] 81.2% | viability, T/C [12] 101% | viability, T/C [13] 89% | viability, T/C [14] 97.5% | viability, T/C [15] 84.1% | viability, T/C [16] 88.8% | viability, T/C [17] 88.8% | viability, T/C [18] 94.6% | viability, T/C [19] 76.9% | viability, T/C [20] 91.6% | viability, T/C [21] 89.6% | viability, T/C [22] 85.4% | viability, T/C [23] 89.5% | viability, T/C [24] 79.4% | viability, T/C [25] 87.8% | viability, T/C [26] 85% | viability, T/C [27] 87.5% | viability, T/C [28] 78.8% | viability, T/C [29] 87.8% | viability, T/C [30] 86.7% | viability, T/C [31] 87.5% | viability, T/C [32] 78.5% | viability, T/C [33] 89% | viability, T/C [34] 90.7% | viability, T/C [35] 77%

CCN1C(C(=O)NC23CCC(C(=O)O)(CC2)CC3)C(c2cccc(Cl)c2F)C2(C(=O)Nc3cc(Cl)ccc32)C12CCCCC2 (stereo not given)
inactive: viability, T/C (compound 0.00949 µM) 102% and 109% | viability, T/C (compound 0.03 µM) 102% [middle of 15 runs] | viability, T/C (compound 0.0949 µM) 101% [middle of 15 runs] | viability, T/C (compound 0.3 µM) 97.9% [middle of 15 runs] | viability, T/C (compound 3 µM) 93.4% [middle of 15 runs]
> 3000 nM: IC50 (compound alone, run of 10/11/2022) | IC50 (curve of compound)

CCN1CCN(Cc2ccc(Nc3ncc(F)c(-c4cc(F)c5nc(C)n(C(C)C)c5c4)n3)nc2)CC1
inactive: viability, T/C (compound 0.00316 µM) 99.3% and 89.7% and 102% | viability, T/C (compound 0.01 µM) 95.8% and 105% and 93.8% | viability, T/C (compound 0.0316 µM) 99.9% and 102% and 101% | viability, T/C (compound 0.1 µM) 96.5% and 111% and 105% | viability, T/C (compound 0.316 µM) 92.8% and 84.3% and 97.3% | viability, T/C (compound 1 µM) 91.7% and 81% and 79.7%
> 1000 nM: IC50 (curve of compound)

O=C(c1ccc(F)c(F)c1Nc1ccc(I)cc1F)N1CC(O)([C@@H]2CCCCN2)C1
> 1000 nM: IC50 (curve of compound)
inactive: viability, T/C (compound 0.00316 µM) 89.8% and 105% and 96.8% | viability, T/C (compound 0.01 µM) 99.2% and 107% and 97.3% | viability, T/C (compound 0.0316 µM) 84.4% and 103% and 97.9% | viability, T/C (compound 0.1 µM) 89% and 98.1% and 116% | viability, T/C (compound 0.316 µM) 88.8% and 94.5% and 97.2% | viability, T/C (compound 1 µM) 65.3% and 83.7% and 98.2%

C#Cc1c(F)ccc2cc(O)cc(-c3ncc4c(N5CC6CCC(C5)N6)nc(OCC56CCCN5CC(F)C6)nc4c3F)c12 (stereo not given)
> 10000 nM: IC50 (curve of compound)
inactive: viability, T/C (compound 0.0316 µM) 93% and 102% and 110% | viability, T/C (compound 0.1 µM) 89.5% and 97.4% and 102% | viability, T/C (compound 0.316 µM) 94.3% (2×) and 101% | viability, T/C (compound 1 µM) 106% and 98.8% and 97.6% | viability, T/C (compound 3.16 µM) 96.5% and 100% and 101% | viability, T/C (compound 10 µM) 72.5% and 96.5% and 83%

COc1c(OCCCN2CCOCC2)ccc2c3n(c(=NC(=O)c4cnc(N)nc4)nc12)CCN3 + CCN1C(C(=O)NC23CCC(C(=O)O)(CC2)CC3)C(c2cccc(Cl)c2F)C2(C(=O)Nc3cc(Cl)ccc32)C12CCCCC2
inactive: viability, T/C [6] 107% | viability, T/C [7] 114% | viability, T/C [8] 95.8% | viability, T/C [9] 100% | viability, T/C [10] 96.7% | viability, T/C [11] 59.2% | viability, T/C [12] 94.6% | viability, T/C [13] 96.7% | viability, T/C [14] 87.2% | viability, T/C [15] 90.3% | viability, T/C [16] 80.5% | viability, T/C [17] 58.7% | viability, T/C [18] 93.2% | viability, T/C [19] 93.6% | viability, T/C [20] 81.2% | viability, T/C [21] 74.8% | viability, T/C [22] 57.6% | viability, T/C [23] 51.5% | viability, T/C [24] 89.6% | viability, T/C [25] 92.2% | viability, T/C [26] 81% | viability, T/C [27] 64.9% | viability, T/C [28] 55.8% | viability, T/C [29] 43.6% | viability, T/C [30] 92.4% | viability, T/C [31] 89.8% | viability, T/C [32] 86.7% | viability, T/C [33] 63.1% | viability, T/C [34] 47.7% | viability, T/C [35] 36%
> 1000 nM: IC50 [1] | IC50 [2] | IC50 [3]
243 nM: IC50 [5]
484 nM: IC50 [4]

Cc1nc(N2CCC3(CC2)COC(C)C3N)c(CO)nc1Sc1ccnc(N)c1Cl (stereo not given)
inactive: viability, T/C (compound 0.00949 µM) 83.4% and 92.6% and 92.5% | viability, T/C (compound 0.03 µM) 82.8% and 102% and 101% | viability, T/C (compound 0.0949 µM) 104% and 101% and 77.7% | viability, T/C (compound 0.3 µM) 112% and 84.2% and 93% | viability, T/C (compound 0.949 µM) 101% and 84% and 83.2% | viability, T/C (compound 3 µM) 76.5% and 70.5% and 76.4%
> 3000 nM: IC50 (curve of compound)
